Test results published in PubChem BioAssay (NCI).
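Results reflect a 48-hour exposure of cells in 96-well plates to compound at five concentrations. GI50: concentration for 50% inhibition of growth. TGI is the concentration that stops growth completely.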

Key:
Test in all cases: growth of human tumour cells (NCI), 48 h
[1] = test system: BT-549 breast
[2] = test system: NCI-H226 lung
[3] = test system: HT29 colon
[4] = test system: HOP-92 NSCLC
[5] = test system: DU-145 prostate
[6] = test system: SF-295 CNS
[7] = test system: KM12 colon
[8] = test system: SK-MEL-5 melanoma
[9] = test system: NCI-H23 lung
[10] = test system: CCRF-CEM leukemia
[11] = test system: UACC-62 melanoma
[12] = test system: SNB-19 CNS

Molecule | TGI [1] [µM] | TGI [2] [µM] | TGI [3] [µM] | TGI [4] [µM] | TGI [5] [µM] | TGI [6] [µM] | TGI [7] [µM] | TGI [8] [µM] | TGI [9] [µM] | TGI [10] [µM] | TGI [11] [µM] | TGI [12] [µM] | GI50 [1] [µM] | GI50 [3] [µM] | GI50 [4] [µM] | GI50 [6] [µM] | GI50 [8] [µM] | GI50 [9] [µM] | GI50 [10] [µM] | GI50 [11] [µM]
C/C(=C\c1ccccc1)n1c(=O)cc(C)n1C | > 100 | > 100 | > 100 | > 100 | > 100 | > 100 | > 100 | > 100 | > 100 | > 100 | > 100 | > 100 | – | – | – | – | – | – | – | –
H-KIFKKFKTIIKKVWRIFGRF-NH2 | > 100 | – | > 100 | 4.67 | – | 4.68 | – | 5.8 | 7.51 | > 100 | 4.92 | – | 3.54 | 2.92 | 2 | 2.05 | 2.3 | 2.44 | 2.53 | 2.03
